doi:10.1101/2024.09.05.611349v1 (biorxiv, 2024)
In brackets after ≈: the same amount, converted by molar mass. Read-outs that look alike come from different tables or passages of the source. Blank lines part the entries; values can stand above or below the compound they belong to.

Tests used:
Assay in all cases: microbe, parasite or virus in culture
Design in all cases: species or system gram-positive clinical isolates
[1] = system: Staphylococcus epidermidis MRSE 17-1; details: Staphylococcus epidermidis, MRSE
[2] = system: Enterococcus faecium EFM 15-9; details: Enterococcus faecium
[3] = system: Enterococcus faecalis EFA 15-55; details: Enterococcus faecalis
[4] = system: Staphylococcus epidermidis MRSE 15-83; details: Staphylococcus epidermidis, MRSE
[5] = system: Staphylococcus epidermidis MRSE 15-2; details: Staphylococcus epidermidis, MRSE
[6] = system: Staphylococcus epidermidis MRSE 15-80; details: Staphylococcus epidermidis, MRSE
[7] = system: Staphylococcus aureus MSSA 15-2; details: Staphylococcus aureus, MSSA
[8] = system: Staphylococcus aureus MRSA 15-2; details: Staphylococcus aureus, MRSA
[9] = system: Staphylococcus epidermidis MRSE 15-76; details: Staphylococcus epidermidis, MRSE
[10] = system: Enterococcus faecium EFM 15-6; details: Enterococcus faecium
[11] = system: Staphylococcus aureus MRSA 17-3; details: Staphylococcus aureus, MRSA
[12] = system: Staphylococcus epidermidis MRSE 17-3; details: Staphylococcus epidermidis, MRSE
[13] = system: Enterococcus faecalis EFA 15-57; details: Enterococcus faecalis
[14] = system: Staphylococcus epidermidis MRSE 15-1; details: Staphylococcus epidermidis, MRSE
[15] = system: Enterococcus faecalis EFA 15-66; details: Enterococcus faecalis
[16] = system: Staphylococcus aureus MSSA 16-1; details: Staphylococcus aureus, MSSA
[17] = system: Staphylococcus aureus MRSA 17-8; details: Staphylococcus aureus, MRSA
[18] = system: Staphylococcus epidermidis MRSE 15-81; details: Staphylococcus epidermidis, MRSE
[19] = system: Staphylococcus aureus MSSA 15-7; details: Staphylococcus aureus, MSSA
[20] = system: Staphylococcus aureus MSSA 15-8; details: Staphylococcus aureus, MSSA
[21] = system: Staphylococcus aureus MRSA 17-9; details: Staphylococcus aureus, MRSA
[22] = system: Staphylococcus aureus MSSA 15-5; details: Staphylococcus aureus, MSSA
[23] = system: Enterococcus faecalis EFA 15-2; details: Enterococcus faecalis
[24] = system: Staphylococcus aureus MSSA 15-1; details: Staphylococcus aureus, MSSA
[25] = system: Staphylococcus aureus MRSA 17-6; details: Staphylococcus aureus, MRSA
[26] = system: Staphylococcus aureus MRSA 17-10; details: Staphylococcus aureus, MRSA
[27] = system: Enterococcus faecium EFM 15-7; details: Enterococcus faecium
[28] = read-out: MIC(μg/ml) / vancomycin

SMILES: CCCCCOc1ccc(C(=O)NNC(=S)NC(C)=O)cc1 [1b, N-(2-(4-(n-pentoxy)benzoyl)hydrazine-1-carbonothioyl)acetamide]
- MIC ([1]; read-out: MIC(μg/ml) / 1b): 0.5 µg/mL (≈ 1.55 µM)
- MIC ([2]; EFM159, read-out: MIC(μg/ml) / 1b): 4 µg/mL (≈ 12.4 µM)
- MIC ([3]; EFA1555, read-out: MIC(μg/ml) / 1b): 8 µg/mL (≈ 24.7 µM)
- MIC ([4]; read-out: MIC(μg/ml) / 1b): 1 µg/mL (≈ 3.09 µM)
- MIC ([5]; read-out: MIC(μg/ml) / 1b): 4 µg/mL (≈ 12.4 µM)
- MIC ([6]; read-out: MIC(μg/ml) / 1b): 1 µg/mL (≈ 3.09 µM)
- MIC ([7]; read-out: MIC(μg/ml) / 1b): 2 µg/mL (≈ 6.18 µM)
- MIC ([8]; read-out: MIC(μg/ml) / 1b): 4 µg/mL (≈ 12.4 µM)
- MIC ([9]; read-out: MIC(μg/ml) / 1b): 2 µg/mL (≈ 6.18 µM)
- MIC ([10]; EFM156, read-out: MIC(μg/ml) / 1b): 2 µg/mL (≈ 6.18 µM)
- MIC ([11]; read-out: MIC(μg/ml) / 1b): 2 µg/mL (≈ 6.18 µM)
- MIC ([12]; read-out: MIC(μg/ml) / 1b): 1 µg/mL (≈ 3.09 µM)
- MIC ([13]; EFA1557, read-out: MIC(μg/ml) / 1b): 4 µg/mL (≈ 12.4 µM)
- MIC ([14]; read-out: MIC(μg/ml) / 1b): 4 µg/mL (≈ 12.4 µM)
- MIC ([15]; EFA1566, read-out: MIC(μg/ml) / 1b): 4 µg/mL (≈ 12.4 µM)
- MIC ([16]; read-out: MIC(μg/ml) / 1b): 1 µg/mL (≈ 3.09 µM)
- MIC ([17]; read-out: MIC(μg/ml) / 1b): 2 µg/mL (≈ 6.18 µM)
- MIC ([18]; read-out: MIC(μg/ml) / 1b): 0.5 µg/mL (≈ 1.55 µM)
- MIC ([19]; read-out: MIC(μg/ml) / 1b): 2 µg/mL (≈ 6.18 µM)
- MIC ([20]; read-out: MIC(μg/ml) / 1b): 2 µg/mL (≈ 6.18 µM)
- MIC ([21]; read-out: MIC(μg/ml) / 1b): 2 µg/mL (≈ 6.18 µM)
- MIC ([22]; read-out: MIC(μg/ml) / 1b): 2 µg/mL (≈ 6.18 µM)
- MIC ([23]; EFA152, read-out: MIC(μg/ml) / 1b): 8 µg/mL (≈ 24.7 µM)
- MIC ([24]; read-out: MIC(μg/ml) / 1b): 1 µg/mL (≈ 3.09 µM)
- MIC ([25]; read-out: MIC(μg/ml) / 1b): 2 µg/mL (≈ 6.18 µM)
- MIC ([26]; read-out: MIC(μg/ml) / 1b): 2 µg/mL (≈ 6.18 µM)
- MIC ([27]; EFM157, read-out: MIC(μg/ml) / 1b): 2 µg/mL (≈ 6.18 µM)

- MIC [1, 28]: 1 µg/mL (≈ 0.69 µM)
- MIC ([2]; EFM159, read-out: MIC(μg/ml) / vancomycin): 0.5 µg/mL (≈ 0.345 µM)
- MIC ([3]; EFA1555, read-out: MIC(μg/ml) / vancomycin): 0.5 µg/mL (≈ 0.345 µM)
- MIC [4, 28]: 1 µg/mL (≈ 0.69 µM)
- MIC [5, 28]: 2 µg/mL (≈ 1.38 µM)
- MIC [6, 28]: 2 µg/mL (≈ 1.38 µM)
- MIC [7, 28]: 1 µg/mL (≈ 0.69 µM)
- MIC [8, 28]: 2 µg/mL (≈ 1.38 µM)
- MIC [9, 28]: 2 µg/mL (≈ 1.38 µM)
- MIC ([10]; EFM156, read-out: MIC(μg/ml) / vancomycin): 1 µg/mL (≈ 0.69 µM)
- MIC [11, 28]: 1 µg/mL (≈ 0.69 µM)
- MIC [12, 28]: 2 µg/mL (≈ 1.38 µM)
- MIC ([13]; EFA1557, read-out: MIC(μg/ml) / vancomycin): 2 µg/mL (≈ 1.38 µM)
- MIC [14, 28]: 2 µg/mL (≈ 1.38 µM)
- MIC ([15]; EFA1566, read-out: MIC(μg/ml) / vancomycin): 2 µg/mL (≈ 1.38 µM)
- MIC [16, 28]: 0.5 µg/mL (≈ 0.345 µM)
- MIC [17, 28]: 0.5 µg/mL (≈ 0.345 µM)
- MIC [18, 28]: 2 µg/mL (≈ 1.38 µM)
- MIC [19, 28]: 1 µg/mL (≈ 0.69 µM)
- MIC [20, 28]: 0.5 µg/mL (≈ 0.345 µM)
- MIC [21, 28]: 0.5 µg/mL (≈ 0.345 µM)
- MIC [22, 28]: 0.5 µg/mL (≈ 0.345 µM)
- MIC ([23]; EFA152, read-out: MIC(μg/ml) / vancomycin): 0.5 µg/mL (≈ 0.345 µM)
- MIC [24, 28]: 1 µg/mL (≈ 0.69 µM)
- MIC [25, 28]: 0.5 µg/mL (≈ 0.345 µM)
- MIC [26, 28]: 1 µg/mL (≈ 0.69 µM)
- MIC ([27]; EFM157, read-out: MIC(μg/ml) / vancomycin): 0.5 µg/mL (≈ 0.345 µM)
SMILES: CN[C@H](CC(C)C)C(=O)N[C@H]1C(=O)N[C@@H](CC(N)=O)C(=O)N[C@H]2C(=O)N[C@H]3C(=O)N[C@H](C(=O)N[C@H](C(=O)O)c4cc(O)cc(O)c4-c4cc3ccc4O)[C@H](O)c3ccc(c(Cl)c3)Oc3cc2cc(c3O[C@@H]2O[C@H](CO)[C@@H](O)[C@H](O)[C@H]2O[C@H]2C[C@](C)(N)[C@H](O)[C@H](C)O2)Oc2ccc(cc2Cl)[C@H]1O [vancomycin]
